Target: c-Myc template DNA (c-myc quadruplex)
Assay: Quadruplex binding / stop assay (Taq polymerase arrest, capillary electrophoresis)
Conditions: read-out: Stop Data c-Myc μM; concentration at which 50% of the DNA was arrested (arrested:full-length 1:1)

SMILES | IC50 [µM]
CN(C)CCCNC(=O)c1cn2c3c(c(N4CCC(NC(=O)OC(C)(C)C)C4)c(F)cc3c1=O)Oc1cc3ccccc3cc1-2 (centres unmarked) [compound 242] | 1.75
CC1CCN(CCCNC(=O)c2cn3c4c(c(N5CCC(NC(=O)OC(C)(C)C)C5)c(F)cc4c2=O)Oc2cc4ccccc4cc2-3)CC1 (centres unmarked) [compound 243] | 1.75
NC1CCN(c2c(F)cc3c(=O)c(C(=O)NN4CCCCC4)cn4c3c2Oc2cc3ccccc3cc2-4)C1 (centres unmarked) [compound 244] | 1.75
NC1CCN(c2c(F)cc3c(=O)c(C(=O)NC4CCN(Cc5ccccc5)CC4)cn4c3c2Oc2cc3ccccc3cc2-4)C1 (centres unmarked) [compound 245] | 1.75
CN(C)CCCNC(=O)c1cn2c3c(c(N4CCC(N)C4)c(F)cc3c1=O)Oc1cc3ccccc3cc1-2 (centres unmarked) [compound 246] | 1.75
NC1CCN(c2c(F)cc3c(=O)c(C(=O)NCc4ccccc4N4CCCCC4)cn4c3c2Oc2cc3ccccc3cc2-4)C1 (centres unmarked) [compound 247] | 1.75
NC1CCN(c2c(F)cc3c(=O)c(C(=O)NCc4ccccc4N4CCOCC4)cn4c3c2Oc2cc3ccccc3cc2-4)C1 (centres unmarked) [compound 248] | 1.75
NC1CCN(c2c(F)cc3c(=O)c(C(=O)N4CCCCC4CN4CCCC4)cn4c3c2Oc2cc3ccccc3cc2-4)C1 (centres unmarked) [compound 249] | 1.75
CCN(CC)C(=O)C1CCCN(c2c(F)cc3c(=O)c(C(=O)NCCC4CCCN4C)cn4c3c2Oc2cc3ccccc3cc2-4)C1 (centres unmarked) [compound 250] | 1.75
CN1CCCC1CCNC(=O)c1cn2c3c(c(NC(=O)C4CCCNC4)c(F)cc3c1=O)Oc1cc3ccccc3cc1-2 (centres unmarked) [compound 251] | 1.75
CN1CCCC1CCNC(=O)c1cn2c3c(c(NCC4CCNCC4)c(F)cc3c1=O)Oc1cc3ccccc3cc1-2 (centres unmarked) [compound 252] | 1.75
CN1CCCC1CCNC(=O)c1cn2c3c(c(/N=C4\CCCCN4)c(F)cc3c1=O)Oc1cc3ccccc3cc1-2 (centres unmarked) [compound 253] | 1.75
CN1CCCC1CCNC(=O)c1cn2c3c(c(N4CCC(N5CCCCC5)CC4)c(F)cc3c1=O)Oc1cc3ccccc3cc1-2 (centres unmarked) [compound 254] | 1.75
CCOC(=O)N1CCC(Nc2c(F)cc3c(=O)c(C(=O)NCCC4CCCN4C)cn4c3c2Oc2cc3ccccc3cc2-4)CC1 (centres unmarked) [compound 256] | 1.75
CN1CCC(N(C)c2c(F)cc3c(=O)c(C(=O)NCCC4CCCN4C)cn4c3c2Oc2cc3ccccc3cc2-4)CC1 (centres unmarked) [compound 257] | 1.75
CN1CCCC1CCNC(=O)c1cn2c3c(c(NC4CCN(Cc5ccccc5)CC4)c(F)cc3c1=O)Oc1cc3ccccc3cc1-2 (centres unmarked) [compound 258] | 1.75
CC1CCCCN1CCCNc1c(F)cc2c(=O)c(C(=O)NCCC3CCCN3C)cn3c2c1Oc1cc2ccccc2cc1-3 (centres unmarked) [compound 259] | 1.75
CN1CCCC1CCNC(=O)c1cn2c3c(c(N4CCC(C#N)(c5ccccc5)CC4)c(F)cc3c1=O)Oc1cc3ccccc3cc1-2 (centres unmarked) [compound 260] | 1.75
CN1CCCC1CCNC(=O)c1cn2c3c(c(N4CCC(C(N)=O)CC4)c(F)cc3c1=O)Oc1cc3ccccc3cc1-2 (centres unmarked) [compound 261] | 1.75
CN1CCCC1CCNC(=O)c1cn2c3c(c(N4CCC(NC(=O)OC(C)(C)C)CC4)c(F)cc3c1=O)Oc1cc3ccccc3cc1-2 (centres unmarked) [compound 262] | 1.75
CN(CCCNc1c(F)cc2c(=O)c(C(=O)NCCC3CCCN3C)cn3c2c1Oc1cc2ccccc2cc1-3)c1ccccc1 (centres unmarked) [compound 263] | 1.75
CN1CCCC1CCNC(=O)c1cn2c3c(c(Nc4ccccc4N4CCOCC4)c(F)cc3c1=O)Oc1cc3ccccc3cc1-2 (centres unmarked) [compound 264] | 1.75
CN1CCCC1CCNC(=O)c1cn2c3c(c(N4CCNC(c5cccnc5)C4)c(F)cc3c1=O)Oc1cc3ccccc3cc1-2 (centres unmarked) [compound 265] | 1.75
CN1CCCC1CCNC(=O)c1cn2c3c(c(NCCN4CCCC4)ccc3c1=O)Oc1cc3ccccc3cc1-2 (centres unmarked) [compound 266] | 1.75
O=C(NCCCN1CCOCC1)c1cn2c3c(c(NCCN4CCCC4)ccc3c1=O)Oc1cc3ccccc3cc1-2 [compound 267] | 1.75
O=C(NCCN1CCOCC1)c1cn2c3c(c(NCCN4CCCC4)ccc3c1=O)Oc1cc3ccccc3cc1-2 [compound 268] | 1.75
